Source: US20260183295A1, “METHODS AND COMPOSITIONS FOR TREATING CANCER” (Onconova Therapeutics, Inc., priority 2022, published 2026)

What was measured:
[1] = target: T1, AAK1 (Homo sapiens, UniProt Q2M2I8); assay: CETSA-MS, MDA-MB-231 cell lysates; assay type: binding; conditions: 2 μM and 20 μM
T1 construct: endogenous in cells; host or cells: MDA-MB-231
Protocol: (§1) Following treatment, cell lysates were thermally treated in a thermal gradient profile across a temperature range. Following the thermal shift, cell lysates were spun by centrifuge to pellet aggregate protein and the supernatant withdrawn. The supernatant was then denatured in buffer and heated to denature, reduce, and alkylate the supernatant proteins. Following heating and cooling to room temperature, cold acetone was added to the supernatant samples and proteins precipitated.
(§2) The intact cell protein samples and lysate protein samples were then digested and labeled for mass spectrometry analysis according to the manufacturer's recommended protocols. Digested and labeled protein samples were analyzed by mass spectrometry proteomic analysis and the resulting protein targets were analyzed and plotted.

[2] = target: T2, ATAT1 (Homo sapiens, UniProt Q5SQI0); assay: CETSA-MS, MDA-MB-231 cell lysates; assay type: binding; conditions: 2 μM and 20 μM
T2 construct: endogenous in cells; host or cells: MDA-MB-231
Protocol: as §1, §2

[3] = target: T3, AURKA (Homo sapiens, UniProt O14965); assay: CETSA-MS, MDA-MB-231 cell lysates; assay type: binding; conditions: 2 μM and 20 μM
T3 construct: endogenous in cells; host or cells: MDA-MB-231
T3 sequence (O14965 whole entry): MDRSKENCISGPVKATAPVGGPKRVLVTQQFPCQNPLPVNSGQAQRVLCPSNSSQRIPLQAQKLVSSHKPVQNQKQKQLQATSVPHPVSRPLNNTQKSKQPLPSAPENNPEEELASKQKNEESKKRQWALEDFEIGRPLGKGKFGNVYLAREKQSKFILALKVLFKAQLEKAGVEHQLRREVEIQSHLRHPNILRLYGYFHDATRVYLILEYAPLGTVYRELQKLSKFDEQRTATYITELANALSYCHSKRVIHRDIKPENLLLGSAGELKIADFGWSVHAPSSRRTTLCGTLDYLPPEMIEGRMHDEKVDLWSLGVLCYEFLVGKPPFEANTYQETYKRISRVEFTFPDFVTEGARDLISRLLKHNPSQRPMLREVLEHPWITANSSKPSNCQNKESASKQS
Protocol: as §1, §2

[4] = target: T4, BMP2K (Homo sapiens, UniProt Q9NSY1); assay: CETSA-MS, MDA-MB-231 cell lysates; assay type: binding; conditions: 2 μM and 20 μM
T4 construct: endogenous in cells; host or cells: MDA-MB-231
Protocol: as §1, §2

[5] = target: BUB1 (Homo sapiens, UniProt O43683); assay: CETSA-MS, MDA-MB-231 cell lysates; assay type: binding; conditions: 2 μM and 20 μM
Protocol: as §1, §2

[6] = target: T5, CDC42BPB (Homo sapiens, UniProt Q9Y5S2); assay: CETSA-MS, MDA-MB-231 cell lysates; assay type: binding; conditions: 2 μM and 20 μM
T5 construct: endogenous in cells; host or cells: MDA-MB-231
Protocol: as §1, §2

[7] = target: T6, CDK2 (Homo sapiens, UniProt P24941); assay: CETSA-MS, MDA-MB-231 cell lysates; assay type: binding; conditions: 2 μM and 20 μM
T6 construct: endogenous in cells; host or cells: MDA-MB-231
Protocol: as §1, §2

[8] = target: T7, CDK5 (Homo sapiens, UniProt Q00535); assay: CETSA-MS, MDA-MB-231 cell lysates; assay type: binding; conditions: 2 μM and 20 μM
T7 construct: endogenous in cells; host or cells: MDA-MB-231
T7 sequence (Q00535 whole entry): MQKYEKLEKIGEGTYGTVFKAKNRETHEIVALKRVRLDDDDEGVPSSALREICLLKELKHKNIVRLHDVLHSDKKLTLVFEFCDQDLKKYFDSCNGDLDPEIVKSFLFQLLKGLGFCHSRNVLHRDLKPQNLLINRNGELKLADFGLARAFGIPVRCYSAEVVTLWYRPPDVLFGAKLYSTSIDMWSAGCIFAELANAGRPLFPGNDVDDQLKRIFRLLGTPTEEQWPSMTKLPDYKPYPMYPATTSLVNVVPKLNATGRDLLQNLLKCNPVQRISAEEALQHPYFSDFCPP
Protocol: as §1, §2

[9] = target: T8, CHEK1 (Homo sapiens, UniProt O14757); assay: CETSA-MS, MDA-MB-231 cell lysates; assay type: binding; conditions: 2 μM and 20 μM
T8 construct: endogenous in cells; host or cells: MDA-MB-231
T8 sequence (O14757 1-476): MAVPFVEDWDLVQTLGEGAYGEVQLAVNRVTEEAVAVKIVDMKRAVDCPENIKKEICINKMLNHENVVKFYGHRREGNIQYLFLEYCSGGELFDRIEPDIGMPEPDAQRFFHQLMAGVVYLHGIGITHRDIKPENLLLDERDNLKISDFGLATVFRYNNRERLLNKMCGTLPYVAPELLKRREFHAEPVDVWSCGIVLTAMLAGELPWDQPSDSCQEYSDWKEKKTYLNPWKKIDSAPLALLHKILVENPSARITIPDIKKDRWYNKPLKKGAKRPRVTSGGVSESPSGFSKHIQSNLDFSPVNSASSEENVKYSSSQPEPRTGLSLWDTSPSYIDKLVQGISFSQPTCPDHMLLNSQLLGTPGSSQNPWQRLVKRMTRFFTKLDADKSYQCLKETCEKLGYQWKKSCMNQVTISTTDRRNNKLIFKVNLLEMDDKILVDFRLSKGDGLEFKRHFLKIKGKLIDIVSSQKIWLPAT
Protocol: as §1, §2

[10] = target: T9, CPQ (Homo sapiens, UniProt Q9Y646); assay: CETSA-MS, MDA-MB-231 cell lysates; assay type: binding; conditions: 2 μM and 20 μM
T9 construct: endogenous in cells; host or cells: MDA-MB-231
Protocol: as §1, §2

[11] = target: T10, DGCR6 (Homo sapiens, UniProt Q14129); assay: CETSA-MS, MDA-MB-231 cell lysates; assay type: binding; conditions: 2 μM and 20 μM
T10 construct: endogenous in cells; host or cells: MDA-MB-231
Protocol: as §1, §2

[12] = target: T11, EPHA2 (Homo sapiens, UniProt P29317); assay: CETSA-MS, MDA-MB-231 cell lysates; assay type: binding; conditions: 2 μM and 20 μM
T11 construct: endogenous in cells; host or cells: MDA-MB-231
Protocol: as §1, §2

[13] = target: T12, FKBP8 (Homo sapiens, UniProt Q14318); assay: CETSA-MS, MDA-MB-231 cell lysates; assay type: binding; conditions: 2 μM and 20 μM
T12 construct: endogenous in cells; host or cells: MDA-MB-231
Protocol: as §1, §2

[14] = target: T13, GSK3A (Homo sapiens, UniProt P49840); assay: CETSA-MS, MDA-MB-231 cell lysates; assay type: binding; conditions: 2 μM and 20 μM
T13 construct: endogenous in cells; host or cells: MDA-MB-231
Protocol: as §1, §2

[15] = target: T14, GSK3B (Homo sapiens, UniProt P49841); assay: CETSA-MS, MDA-MB-231 cell lysates; assay type: binding; conditions: 2 μM and 20 μM
T14 construct: endogenous in cells; host or cells: MDA-MB-231
T14 sequence (P49841 whole entry): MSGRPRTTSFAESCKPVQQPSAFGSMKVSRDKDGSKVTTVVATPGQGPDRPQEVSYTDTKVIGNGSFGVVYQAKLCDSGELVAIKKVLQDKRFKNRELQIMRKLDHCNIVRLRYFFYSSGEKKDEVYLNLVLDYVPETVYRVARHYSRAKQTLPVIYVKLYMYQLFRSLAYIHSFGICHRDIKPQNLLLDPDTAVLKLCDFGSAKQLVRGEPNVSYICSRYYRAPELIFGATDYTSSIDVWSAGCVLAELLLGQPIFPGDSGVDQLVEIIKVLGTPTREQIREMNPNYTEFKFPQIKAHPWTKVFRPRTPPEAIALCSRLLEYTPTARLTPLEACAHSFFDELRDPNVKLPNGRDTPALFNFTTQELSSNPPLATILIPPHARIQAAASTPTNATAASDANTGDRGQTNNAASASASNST
Protocol: as §1, §2

[16] = target: T15, LIMK1 (Homo sapiens, UniProt P53667); assay: CETSA-MS, MDA-MB-231 cell lysates; assay type: binding; conditions: 2 μM and 20 μM
T15 construct: endogenous in cells; host or cells: MDA-MB-231
T15 sequence (P53667 whole entry): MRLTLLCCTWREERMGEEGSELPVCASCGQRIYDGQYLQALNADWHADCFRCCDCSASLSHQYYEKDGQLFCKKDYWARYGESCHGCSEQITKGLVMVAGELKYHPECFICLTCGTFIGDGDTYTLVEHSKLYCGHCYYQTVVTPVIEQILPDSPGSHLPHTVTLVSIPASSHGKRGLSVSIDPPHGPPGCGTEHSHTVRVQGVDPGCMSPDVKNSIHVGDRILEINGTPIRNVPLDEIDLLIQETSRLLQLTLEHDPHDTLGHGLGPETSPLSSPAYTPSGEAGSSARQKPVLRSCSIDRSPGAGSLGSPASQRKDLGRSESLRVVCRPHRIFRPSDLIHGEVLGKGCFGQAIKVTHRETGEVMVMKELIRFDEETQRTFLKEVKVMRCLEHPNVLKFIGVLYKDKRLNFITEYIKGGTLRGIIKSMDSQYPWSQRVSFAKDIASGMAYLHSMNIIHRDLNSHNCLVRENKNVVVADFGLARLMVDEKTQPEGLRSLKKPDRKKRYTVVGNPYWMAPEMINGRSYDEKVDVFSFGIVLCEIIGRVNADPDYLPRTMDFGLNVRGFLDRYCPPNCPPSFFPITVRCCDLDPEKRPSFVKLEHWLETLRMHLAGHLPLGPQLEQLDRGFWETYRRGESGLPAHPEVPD
Protocol: as §1, §2

[17] = target: T16, MAP11 (Homo sapiens, UniProt Q8WVR3); assay: CETSA-MS, MDA-MB-231 cell lysates; assay type: binding; conditions: 2 μM and 20 μM
T16 construct: endogenous in cells; host or cells: MDA-MB-231
Protocol: as §1, §2

[18] = target: T17, MAPKAPK5 (Homo sapiens, UniProt Q8IW41); assay: CETSA-MS, MDA-MB-231 cell lysates; assay type: binding; conditions: 2 μM and 20 μM
T17 construct: endogenous in cells; host or cells: MDA-MB-231
Protocol: as §1, §2

[19] = target: T18, PER3 (Homo sapiens, UniProt P56645); assay: CETSA-MS, MDA-MB-231 cell lysates; assay type: binding; conditions: 2 μM and 20 μM
T18 construct: endogenous in cells; host or cells: MDA-MB-231
Protocol: as §1, §2

[20] = target: T19, SLK (Homo sapiens, UniProt Q9H2G2); assay: CETSA-MS, MDA-MB-231 cell lysates; assay type: binding; conditions: 2 μM and 20 μM
T19 construct: endogenous in cells; host or cells: MDA-MB-231
T19 sequence (Q9H2G2 whole entry): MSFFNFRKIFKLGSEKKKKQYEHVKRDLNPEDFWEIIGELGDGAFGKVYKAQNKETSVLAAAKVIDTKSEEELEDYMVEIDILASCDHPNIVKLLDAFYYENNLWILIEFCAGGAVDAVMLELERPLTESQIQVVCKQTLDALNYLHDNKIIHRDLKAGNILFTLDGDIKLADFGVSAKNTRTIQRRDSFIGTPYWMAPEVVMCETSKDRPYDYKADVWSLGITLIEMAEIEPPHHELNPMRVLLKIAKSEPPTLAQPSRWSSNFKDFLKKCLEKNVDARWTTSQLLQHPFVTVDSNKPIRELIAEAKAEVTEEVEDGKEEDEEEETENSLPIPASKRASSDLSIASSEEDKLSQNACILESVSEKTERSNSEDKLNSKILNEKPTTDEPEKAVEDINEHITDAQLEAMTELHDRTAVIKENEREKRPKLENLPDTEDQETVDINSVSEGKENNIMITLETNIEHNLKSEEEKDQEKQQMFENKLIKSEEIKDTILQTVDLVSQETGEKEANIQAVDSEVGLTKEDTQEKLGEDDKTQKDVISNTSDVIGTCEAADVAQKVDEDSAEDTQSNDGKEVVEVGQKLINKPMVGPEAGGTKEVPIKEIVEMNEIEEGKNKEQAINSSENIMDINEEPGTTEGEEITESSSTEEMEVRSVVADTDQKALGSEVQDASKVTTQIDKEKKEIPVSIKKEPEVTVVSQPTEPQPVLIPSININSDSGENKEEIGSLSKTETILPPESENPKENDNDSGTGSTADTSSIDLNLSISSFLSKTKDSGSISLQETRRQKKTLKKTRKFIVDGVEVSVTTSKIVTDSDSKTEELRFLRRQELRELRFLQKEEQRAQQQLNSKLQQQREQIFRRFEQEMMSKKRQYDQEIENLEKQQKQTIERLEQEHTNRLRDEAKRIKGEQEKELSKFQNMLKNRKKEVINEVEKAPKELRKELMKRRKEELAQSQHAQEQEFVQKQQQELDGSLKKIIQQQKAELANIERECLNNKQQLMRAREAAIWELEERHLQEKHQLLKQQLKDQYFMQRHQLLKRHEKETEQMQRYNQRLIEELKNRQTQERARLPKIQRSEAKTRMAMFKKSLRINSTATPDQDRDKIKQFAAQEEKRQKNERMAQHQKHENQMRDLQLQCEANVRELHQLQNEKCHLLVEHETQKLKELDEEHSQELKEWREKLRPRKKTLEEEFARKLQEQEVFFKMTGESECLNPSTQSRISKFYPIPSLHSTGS
Protocol: as §1, §2

[21] = target: T20, STK17A (Homo sapiens, UniProt Q9UEE5); assay: CETSA-MS, MDA-MB-231 cell lysates; assay type: binding; conditions: 2 μM and 20 μM
T20 construct: endogenous in cells; host or cells: MDA-MB-231
T20 sequence (Q9UEE5 whole entry): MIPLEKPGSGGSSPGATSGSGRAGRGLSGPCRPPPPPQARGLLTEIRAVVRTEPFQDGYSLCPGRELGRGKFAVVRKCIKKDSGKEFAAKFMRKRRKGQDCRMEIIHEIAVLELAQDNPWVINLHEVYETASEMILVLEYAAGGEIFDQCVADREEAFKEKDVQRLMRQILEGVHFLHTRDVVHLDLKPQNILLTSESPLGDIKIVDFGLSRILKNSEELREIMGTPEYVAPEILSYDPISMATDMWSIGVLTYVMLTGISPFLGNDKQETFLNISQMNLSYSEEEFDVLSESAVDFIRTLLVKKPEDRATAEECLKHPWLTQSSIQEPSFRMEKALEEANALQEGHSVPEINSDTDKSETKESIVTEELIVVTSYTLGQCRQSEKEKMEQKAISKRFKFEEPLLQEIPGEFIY
Protocol: as §1, §2

[22] = target: T21, STK17B (Homo sapiens, UniProt O94768); assay: CETSA-MS, MDA-MB-231 cell lysates; assay type: binding; conditions: 2 μM and 20 μM
T21 construct: endogenous in cells; host or cells: MDA-MB-231
Protocol: as §1, §2

[23] = target: T22, TBK1 (Homo sapiens, UniProt Q9UHD2); assay: CETSA-MS, MDA-MB-231 cell lysates; assay type: binding; conditions: 2 μM and 20 μM
T22 construct: endogenous in cells; host or cells: MDA-MB-231
Protocol: as §1, §2

[24] = target: T23, TFEB (Homo sapiens, UniProt P19484); assay: CETSA-MS, MDA-MB-231 cell lysates; assay type: binding; conditions: 2 μM and 20 μM
T23 construct: endogenous in cells; host or cells: MDA-MB-231
Protocol: as §1, §2

[25] = target: T24, TGFBR2 (Homo sapiens, UniProt P37173); assay: CETSA-MS, MDA-MB-231 cell lysates; assay type: binding; conditions: 2 μM and 20 μM
T24 construct: endogenous in cells; host or cells: MDA-MB-231
T24 sequence (P37173 23-567): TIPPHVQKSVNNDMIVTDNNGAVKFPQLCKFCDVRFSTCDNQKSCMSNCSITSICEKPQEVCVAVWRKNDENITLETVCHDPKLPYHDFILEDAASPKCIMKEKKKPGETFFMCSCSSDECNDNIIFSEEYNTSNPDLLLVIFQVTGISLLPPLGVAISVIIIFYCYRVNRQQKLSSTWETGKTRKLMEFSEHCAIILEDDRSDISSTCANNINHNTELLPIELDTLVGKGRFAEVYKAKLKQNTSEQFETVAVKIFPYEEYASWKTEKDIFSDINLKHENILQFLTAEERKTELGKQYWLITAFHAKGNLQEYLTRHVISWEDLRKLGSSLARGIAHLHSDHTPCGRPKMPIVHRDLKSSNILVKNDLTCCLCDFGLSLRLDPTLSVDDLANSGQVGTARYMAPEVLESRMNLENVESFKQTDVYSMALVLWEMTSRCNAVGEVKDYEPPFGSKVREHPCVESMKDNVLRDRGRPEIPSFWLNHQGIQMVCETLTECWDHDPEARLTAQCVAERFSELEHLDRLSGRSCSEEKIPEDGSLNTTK
Protocol: as §1, §2

[26] = target: T25, USF2 (Homo sapiens, UniProt Q15853); assay: CETSA-MS, MDA-MB-231 cell lysates; assay type: binding; conditions: 2 μM and 20 μM
T25 construct: endogenous in cells; host or cells: MDA-MB-231
T25 sequence (Q15853 whole entry): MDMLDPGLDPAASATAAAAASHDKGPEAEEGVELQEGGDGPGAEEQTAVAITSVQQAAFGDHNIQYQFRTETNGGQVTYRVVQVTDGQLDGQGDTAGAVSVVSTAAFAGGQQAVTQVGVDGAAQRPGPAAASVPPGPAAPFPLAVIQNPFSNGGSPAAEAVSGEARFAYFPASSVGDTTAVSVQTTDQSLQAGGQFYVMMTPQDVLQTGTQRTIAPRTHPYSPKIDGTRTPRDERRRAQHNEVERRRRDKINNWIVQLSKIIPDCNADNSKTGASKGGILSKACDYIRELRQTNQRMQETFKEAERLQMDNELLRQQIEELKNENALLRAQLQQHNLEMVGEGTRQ
Protocol: as §1, §2

[27] = target: T26, UVSSA (Homo sapiens, UniProt Q2YD98); assay: CETSA-MS, MDA-MB-231 cell lysates; assay type: binding; conditions: 2 μM and 20 μM
T26 construct: endogenous in cells; host or cells: MDA-MB-231
T26 sequence (Q2YD98 whole entry): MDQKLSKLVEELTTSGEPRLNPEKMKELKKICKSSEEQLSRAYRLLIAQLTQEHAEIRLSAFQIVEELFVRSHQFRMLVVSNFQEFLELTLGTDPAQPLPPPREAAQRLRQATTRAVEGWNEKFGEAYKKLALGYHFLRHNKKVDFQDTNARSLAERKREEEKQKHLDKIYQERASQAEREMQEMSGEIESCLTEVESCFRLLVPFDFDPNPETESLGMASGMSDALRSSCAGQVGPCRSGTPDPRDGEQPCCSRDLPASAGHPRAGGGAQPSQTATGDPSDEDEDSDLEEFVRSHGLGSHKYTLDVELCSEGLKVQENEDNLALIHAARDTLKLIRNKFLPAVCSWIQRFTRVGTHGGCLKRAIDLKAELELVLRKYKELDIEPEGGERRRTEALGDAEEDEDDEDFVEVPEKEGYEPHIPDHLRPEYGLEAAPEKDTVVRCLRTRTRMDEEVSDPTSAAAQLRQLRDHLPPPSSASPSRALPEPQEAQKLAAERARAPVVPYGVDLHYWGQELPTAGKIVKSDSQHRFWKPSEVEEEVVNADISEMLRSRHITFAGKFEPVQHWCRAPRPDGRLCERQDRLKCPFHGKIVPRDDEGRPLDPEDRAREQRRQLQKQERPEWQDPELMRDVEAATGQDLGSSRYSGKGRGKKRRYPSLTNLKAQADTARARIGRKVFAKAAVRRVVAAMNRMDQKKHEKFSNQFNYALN
Protocol: as §1, §2

[28] = target: T27, ZCRB1 (Homo sapiens, UniProt Q8TBF4); assay: CETSA-MS, MDA-MB-231 cell lysates; assay type: binding; conditions: 2 μM and 20 μM
T27 construct: endogenous in cells; host or cells: MDA-MB-231
Protocol: as §1, §2

[29] = target: T28, ZNF260 (Homo sapiens, UniProt Q3ZCT1); assay: CETSA-MS, MDA-MB-231 cell lysates; assay type: binding; conditions: 2 μM and 20 μM
T28 construct: endogenous in cells; host or cells: MDA-MB-231
Protocol: as §1, §2

[30] = system: Hs578T spheroids; assay: Spheroid imaging (Hoechst, F-actin); assay type: cell-based; conditions: 5 μM, compared to DMSO, Comparator 1 and Comparator 2 (FIG. 18)
[31] = system: PyMT cells; assay: Annexin V/PI staining, apoptotic cells, 48 hours; assay type: cell-based, mouse; conditions: compared to Comparator 1 (5 μM) and Comparator 3 (1 μM)
[32] = system: B2M; assay: qPCR of mRNA expression, PyMT cells; assay type: cell-based, mouse; conditions: 24 and 48 hours

SMILES: CN1CCN(c2ccc(Nc3ncc4cc(C#N)c(=O)n(C5CCCC5)c4n3)cc2)CC1 [Compound 1, 8-cyclopentyl-2-((4-(4-methylpiperazin-1-yl)phenyl)amino)-7-oxo-7,8-dihydropyrido[2,3-d]pyrimidine-6-carbonitrile]
- Group (CETSA-MS thermal shift) [1]: Stabilization
- Group (CETSA-MS thermal shift) [2]: Stabilization
- Group (CETSA-MS thermal shift) [3]: Stabilization
- Group (CETSA-MS thermal shift) [4]: Stabilization
- Group (CETSA-MS thermal shift) [5]: Stabilization
- Group (CETSA-MS thermal shift) [6]: Destabilization
- Group (CETSA-MS thermal shift) [7]: Stabilization
- Group (CETSA-MS thermal shift) [8]: Stabilization
- Group (CETSA-MS thermal shift) [9]: Destabilization
- Group (CETSA-MS thermal shift) [10]: Stabilization
- Group (CETSA-MS thermal shift) [11]: Destabilization
- Group (CETSA-MS thermal shift) [12]: Stabilization
- Group (CETSA-MS thermal shift) [13]: Stabilization
- Group (CETSA-MS thermal shift) [14]: Stabilization
- Group (CETSA-MS thermal shift) [15]: Stabilization
- Group (CETSA-MS thermal shift) [16]: Stabilization
- Group (CETSA-MS thermal shift) [17]: Stabilization
- Group (CETSA-MS thermal shift) [18]: Destabilization
- Group (CETSA-MS thermal shift) [19]: Stabilization
- Group (CETSA-MS thermal shift) [20]: Stabilization
- Group (CETSA-MS thermal shift) [21]: Stabilization
- Group (CETSA-MS thermal shift) [22]: Stabilization
- Group (CETSA-MS thermal shift) [23]: Destabilization
- Group (CETSA-MS thermal shift) [24]: Stabilization
- Group (CETSA-MS thermal shift) [25]: Stabilization
- Group (CETSA-MS thermal shift) [26]: Stabilization
- Group (CETSA-MS thermal shift) [27]: Destabilization
- Group (CETSA-MS thermal shift) [28]: Stabilization
- Group (CETSA-MS thermal shift) [29]: Destabilization
- spheroid size [30]: small decrease in spheroid size
- number of apoptotic cells (Annexin V/PI) [31]: increased numbers of apoptotic cells
- B2M mRNA levels [32]: to a greater extent than Comparator 1 did
